Assay results reported in patent US20250049777A1, “PHARMACEUTICALLY ACCEPTABLE SALT AND CRYSTALLINE FORM OF GLP-1 RECEPTOR AGONIST AND PREPARATION METHOD THEREFOR” (JIANGSU HENGRUI PHARMACEUTICALS CO., LTD., priority 2021, published 2025).
Where a name gives a salt, the structure may show the parent alone. Read-outs that look alike come from different tables or passages of the source.

How the values were obtained:
[1] = Hygroscopicity of crystal forms of salts (DVS, 25° C.); format: physicochemical; settings: for Crystal form after DVS: 0% to 95% RH
Excerpt: According to the description of hygroscopic characteristics and the definition of hygroscopic weight gain in “9103 Guidelines for Hygroscopicity of Pharmaceuticals”, Chinese Pharmacopoeia, Volume IV, 2015 edition, the following are defined: • deliquescent: absorbing enough water to form a liquid; • extremely hygroscopic: having a hygroscopic weight gain of not less than 15%; • hygroscopic: having a hygroscopic weight gain of less than 15% and not less than 2%; • slightly hygroscopic: having a hygroscopic weight gain of less than 2% and not less than 0.2%; and • no or almost no hygroscopicity: having a hygroscopic weight gain of less than 0.2%.
Surface Measurement Systems intrinsic DVS was used at 25° C. The observed humidity ranged from 0% to 95%. The step was 10%. The criterion was that the mass change dM/dT for each step was less than 0.002%. TMAX was 360 min. Two cycles were carried out.

[2] = Stability of crystal forms of salts under influencing factors (illumination, high temperature, high humidity); format: physicochemical
Excerpt: The sampling and investigation period was 30 days.

[3] = format: physicochemical
Procedure: A salt-type sample was sealed with an aluminum foil bag and placed under the conditions of 25° C./60% RH and 40° C./75% RH, respectively, to investigate the stability.

[4] = Illumination (4500 Lux), 7 days, open
[5] = Illumination (4500 Lux), 14 days, open
[6] = Illumination (4500 Lux), 30 days, open
[7] = 25° C./60% RH, sealed aluminum foil bag
[8] = 40° C./75% RH, sealed aluminum foil bag

## O=C(O)c1ccc2nc(CN3CCC(c4cccc5c4O[C@@H](c4ccc(Cl)cc4F)CO5)CC3)n(C[C@@H]3CCO3)c2c1 [Crystal form A of tromethamine salt, 2-((4-((S)-3-(4-chloro-2-fluorophenyl)-2,3-dihydrobenzo[b][1,4]dioxan-5-yl)piperidin-1-yl)methyl)-1-(((S)-oxetan-2-yl)methyl)-1H-benzo[d]imidazole-6-carboxylic acid]
[1]
  hygroscopic weight gain 0.0% RH to 80.0% RH: 5.02%
  Crystal form after DVS: Unchanged
[2]
  chemical stability: slightly poor chemical stability
[2]; 40° C., 7 days, open
  % Purity: 96.1%
  Crystal form: Unchanged
[2]; 40° C., 14 days, open
  % Purity: 91.7%
  Crystal form: Unchanged
[2]; 40° C., 30 days, open
  % Purity: 87.4%
  Crystal form: Unchanged
[2]; 60° C., 7 days, open
  % Purity: 93.5%
  Crystal form: Unchanged
[2]; 60° C., 14 days, open
  % Purity: 88.6%
  Crystal form: Unchanged
[2]; 75% RH, 7 days, open
  % Purity: 99.4%
  Crystal form: Unchanged
[2]; 75% RH, 14 days, open
  % Purity: 99.4%
  Crystal form: Unchanged
[2]; 75% RH, 30 days, open
  % Purity: 99.3%
  Crystal form: Unchanged
[2]; 92.5% RH, 7 days, open
  % Purity: 99.3%
  Crystal form: Unchanged
[2]; 92.5% RH, 14 days, open
  % Purity: 99.0%
  Crystal form: Unchanged
[2]; 92.5% RH, 30 days, open
  % Purity: 98.6%
  Crystal form: Unchanged
[2]; [4]
  % Purity: 98.9%
  Crystal form: Unchanged
[2]; [5]
  % Purity: 97.6%
  Crystal form: Unchanged
[2]; [6]
  % Purity: 90.8%
  Crystal form: Unchanged
[2]; Initial condition, 0 days
  % Purity: 99.5%
[3]
  physical and chemical stability: good physical and chemical stability
[3]; [7]
  Crystal form: Unchanged
[3]; [8]
  Crystal form: Unchanged

## O=C(O)c1ccc2nc(CN3CCC(c4cccc5c4O[C@@H](c4ccc(Cl)cc4F)CO5)CC3)n(C[C@@H]3CCO3)c2c1 [Crystal form E of tromethamine salt, 2-((4-((S)-3-(4-chloro-2-fluorophenyl)-2,3-dihydrobenzo[b][1,4]dioxan-5-yl)piperidin-1-yl)methyl)-1-(((S)-oxetan-2-yl)methyl)-1H-benzo[d]imidazole-6-carboxylic acid]
[1]
  hygroscopic weight gain 0.0% RH to 80.0% RH: 7.27%
  Crystal form after DVS: Unchanged
[2]
  chemical stability: slightly poor chemical stability
  physical stability: slightly poor physical stability
[2]; 40° C., 7 days, open
  % Purity: 96.0%
  Crystal form: Unchanged
[2]; 40° C., 14 days, open
  % Purity: 93.6%
  Crystal form: Unchanged
[2]; 40° C., 30 days, open
  % Purity: 85.0%
  Crystal form: Unchanged
[2]; 60° C., 7 days, open
  % Purity: 94.8%
  Crystal form: Unchanged
[2]; 60° C., 30 days, open
  % Purity: 81.8%
  Crystal form: Amorphous form
[2]; 75% RH, 7 days, open
  % Purity: 98.3%
  Crystal form: Unchanged
[2]; 75% RH, 14 days, open
  % Purity: 98.4%
  Crystal form: Unchanged
[2]; 75% RH, 30 days, open
  % Purity: 98.3%
  Crystal form: Unchanged
[2]; 92.5% RH, 7 days, open
  % Purity: 98.2%
  Crystal form: Unchanged
[2]; 92.5% RH, 14 days, open
  % Purity: 98.2%
  Crystal form: Unchanged
[2]; 92.5% RH, 30 days, open
  % Purity: 98.1%
  Crystal form: Amorphous form
[2]; [4]
  % Purity: 98.1%
  Crystal form: Unchanged
[2]; [5]
  % Purity: 97.9%
  Crystal form: Unchanged
[2]; [6]
  % Purity: 95.5%
  Crystal form: Unchanged
[2]; Initial condition, 0 days
  % Purity: 98.3%
[3]
  physical and chemical stability: good physical and chemical stability
[3]; 25° C./60% RH, 1 month, sealed aluminum foil bag
  % Purity: 98.2%
[3]; 25° C./60% RH, 2 months, sealed aluminum foil bag
  % Purity: 98.3%
[3]; 25° C./60% RH, 3 months, sealed aluminum foil bag
  % Purity: 98.1%
[3]; [7]
  Crystal form: Unchanged
[3]; 40° C./75% RH, 1 month, sealed aluminum foil bag
  % Purity: 97.7%
[3]; 40° C./75% RH, 2 months, sealed aluminum foil bag
  % Purity: 97.7%
[3]; 40° C./75% RH, 3 months, sealed aluminum foil bag
  % Purity: 97.2%
[3]; [8]
  Crystal form: Unchanged
[3]; Initial condition
  % Purity: 98.3%
